Source: US20260250312A1, “ANTIBACTERIAL COMPOUNDS ELIMINATING DORMANT BACTERIAL CELLS” (UNIVERSITÉ D'AIX-MARSEILLE, priority 2022, published 2026)
Converted amounts (≈) assume the structure as drawn. “And” between values parts separate entries of the source, which are not always exact repeats. Identical values can stand only once. Like-named read-outs stand apart in the source and are kept apart here. Marks after values point to notes of the source that are not given here.

Assays:
[1] = tested on: Enterococcus faecalis (ATCC29212); experiment: Microdilution MIC assay (CLSI-based), E. faecalis; assay type: cell-based; conditions: 20 hours incubation at 35-37° C., MHB; for MIC: Enterococcus faecalis, ATCC29212, 20 h, read-out: Minimum inhibitory concentration E. faecalis ATCC29212
In short: (§1)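 Broth microdilution per modified CLSI guidelines in Mueller Hinton broth, 200 μL, inoculum ca. 5×10^5 CFU/mL; compounds tested as salts, twofold dilutions from 0.2 mg/mL, in triplicate. MIC determined from OD at 620 nm after incubation.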

[2] = tested on: Escherichia coli (ATCC28922); experiment: Microdilution MIC assay (CLSI-based), E. coli; assay type: cell-based; conditions: 20 hours incubation at 35-37° C., MHB; for MIC: Escherichia coli, ATCC28922, 20 h, read-out: Minimum inhibitory concentration E. coli ATCC28922
In short: as §1

CHO-K1 cells = experiment: WST1 cytotoxicity test; assay type: cell-based, Chinese hamster
In short: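 CHO-K1 cells pre-cultured 24 h, then exposed 24 h at 37 °C to increasing compound concentrations. Viability read as WST-1 formazan absorbance at 450 nm after 20 min; dose-response fitted by nonlinear regression.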

[3] = tested on: Staphylococcus aureus (ATCC25923); experiment: Microdilution MIC assay (CLSI-based), S. aureus; assay type: cell-based; conditions: 20 hours incubation at 35-37° C., MHB; for MIC: Staphylococcus aureus, ATCC25923, 20 h, read-out: Minimum inhibitory concentration S. aureus ATCC25923
In short: as §1

[4] = tested on: Pseudomonas aeruginosa (ATCC27853); experiment: Microdilution MIC assay (CLSI-based), P. aeruginosa; assay type: cell-based; conditions: 20 hours incubation at 35-37° C., MHB; for MIC: Pseudomonas aeruginosa, ATCC27853, 20 h, read-out: Minimum inhibitory concentration P. aeruginosa ATCC27853
In short: as §1

[5] = tested on: E. coli non-persister cells; experiment: Anti-persister activity test, non-persister cells; assay type: cell-based, Escherichia coli; conditions: for viability at 62.5 µM / viability at 250 µM / viability at 125 µM: Escherichia coli, 4 h; for viability at 62.5 µM: read-out: Non-persister cell survival rate 96 h, concentration used 62.5 μM, 4 hours treatment; for viability at 250 µM: read-out: Non-persister cell survival rate 96 h, concentration used 250 μM, 4 hours treatment; for viability at 125 µM: read-out: Non-persister cell survival rate 96 h, concentration used 125 μM, 4 hours treatment
Description: (§2) Anti-persister activity test: Escherichia coli (E. coli) persister cells were generated and isolated as described by MARQUES, C. N. H. et al. (Applied and Environmental Microbiology 2014, Vol. 80, No. 22, pp. 6976-6991). E. coli persister cells were compared to E. coli non-persister cells. 1 mL persister or non-persister bacteria culture was added in a 1.5 mL microtube with each of the compounds to be tested or ciprofloxacin as a […], and incubated at 37° C. with 160 rpm shaking for 4 hours. After 4 hours treatment with the compounds, the microtubes were centrifuged at 3,500g for 5 minutes and the pellets were resuspended in 1 mL of fresh drug free RM broth (10 g/L M9 salt, 2% casamino acids, 1 mM MgCl2, 1% glycerol). Resuspended bacteria were then plated over LB agar plates and incubated at 37° C. Bacterial colonies were enumerated after 24, 48 and 96 hours to estimate the survival rate.

[6] = tested on: Escherichia coli (E. coli) persister cells; experiment: Anti-persister activity test, persister cells; assay type: cell-based; conditions: for anti-persister activity (in words): E. coli persister cells, Table 8 conditions; for viability at 62.5 µM / viability at 250 µM / viability at 125 µM: Escherichia coli, 4 h; for viability at 62.5 µM: read-out: Persister cell survival rate 96 h, concentration used 62.5 μM, 4 hours treatment; for viability at 250 µM: read-out: Persister cell survival rate 96 h, concentration used 250 μM, 4 hours treatment; for viability at 125 µM: read-out: Persister cell survival rate 96 h, concentration used 125 μM, 4 hours treatment
Description: as §2

[7] = Cricetulus griseus, CHO-K1, 24 h, WST1, 24 hours at 37° C., read-out: IC50 CHO
[8] = Cricetulus griseus, CHO-K1, WST1, as printed in Table 8, read-out: Toxicity IC50 CHO
[9] = concentration used 125 μM, 4 hours treatment

Row | Compound | MIC [1] | MIC [2] | toxicity results (in words) (CHO-K1 cells) | IC50 (CHO-K1 cells; [7]) | IC50 (CHO-K1 cells; [8]) [µM] | MIC [3] | MIC [4] | anti-persister activity (in words) [6] | viability at 250 µM [5] [%] | viability at 250 µM [6] [%] | also measured
1 | COC(=O)[C@H](NC(=O)CC[C@@H](C)[C@H]1CCC2C3CC[C@@H]4C[C@@H](NCCCNCCCCNCCCN)CC[C@]4(C)C3C[C@H](O)[C@@]21C)C(C)C (stereo partly drawn) [Compound S052, methyl ((4R)-4-((3S,5R,10S,12S,13R,17R)-3-((3-((4-((3-aminopropyl)amino)butyl)amino)propyl)amino)-12-hydroxy-10,13-dimethylhexadecahydro-1H-cyclopenta[a]phenanthren-17-yl)pentanoyl)-D-valinate] | 25 µM and 16 µg/mL | 12.5 µM and 8 µg/mL | good toxicity results | 50 µM and 34 µg/mL | 50 | 3.12 µM and 2 µg/mL | 12.5 µM and 8 µg/mL | both anti-persister and anti-bacterial activities | – | – | viability at 62.5 µM [5]: 0%; viability at 62.5 µM [6]: 0%
2 | COC(=O)[C@H](NC(=O)CC[C@@H](C)[C@H]1CCC2C3C(C[C@H](O)[C@@]21C)[C@@]1(C)CC[C@H](NCCCN(CCCN)CCCN)C[C@H]1C[C@H]3O)C(C)C (stereo partly drawn) [Compound S060, methyl ((4R)-4-((3S,5S,7R,10S,12S,13R,17R)-3-((3-(bis(3-aminopropyl)amino)propyl)amino)-7,12-dihydroxy-10,13-dimethylhexadecahydro-1H-cyclopenta[a]phenanthren-17-yl)pentanoyl)-D-valinate] | 160 µM and 128 µg/mL | 160 µM and 128 µg/mL | good toxicity results | 186 µM and 129 µg/mL | 186 | 40 µM and 32 µg/mL | 160 µM and 128 µg/mL | very potent anti-persister activity | 3.8 | 2 | –
3 | COC(=O)[C@H](Cc1ccc(O)cc1)NC(=O)CC[C@@H](C)[C@H]1CCC2C3C(CC[C@@]21C)[C@@]1(C)CC[C@H](NCCCNCCCCNCCCN)C[C@H]1C[C@H]3O (stereo partly drawn) [Compound S039, methyl ((4R)-4-((3S,5S,7R,10S,13R,17R)-3-((3-((4-((3-aminopropyl)amino)butyl)amino)propyl)amino)-7-hydroxy-10,13-dimethylhexadecahydro-1H-cyclopenta[a]phenanthren-17-yl)pentanoyl)-L-tyrosinate] | 12.5 µM and 8 µg/mL | 6.25 µM and 4 µg/mL | good toxicity results | 60 µM and 45.3 µg/mL | 60 | 6.25 µM and 4 µg/mL | 6.25 µM and 4 µg/mL | very potent anti-persister activity | – | – | viability at 62.5 µM [5]: 2.7%; viability at 62.5 µM [6]: 0%
4 | COC(=O)[C@H](NC(=O)CC[C@@H](C)[C@H]1CCC2C3C(CC[C@@]21C)[C@@]1(C)CC[C@H](NCCCNCCCN)C[C@H]1C[C@H]3O)C(C)C (stereo partly drawn) [Compound S048, methyl ((4R)-4-((3S,5S,7R,10S,13R,17R)-3-((3-((3-aminopropyl)amino)propyl)amino)-7-hydroxy-10,13-dimethylhexadecahydro-1H-cyclopenta[a]phenanthren-17-yl)pentanoyl)-D-valinate] | – | – | – | – | – | – | – | both anti-persister and anti-bacterial activities | – | – | Minimum inhibitory concentration E. faecalis ATCC29212 [1]: 25* μM and 16* μg/mL; Minimum inhibitory concentration E. coli ATCC28922 [2]: 6.25* μM and 4* μg/mL; IC50 CHO (CHO-K1 cells; WST1, 24 hours at 37° C.): 60.09 µg/mL (≈ 97.1 µM); IC50 (CHO-K1 cells; WST1, 24 hours at 37° C., read-out: IC50 CHO): 97.1 µM; IC50 (CHO-K1 cells; WST1, Table 8, read-out: Toxicity IC50 CHO): 97.1 µM; Minimum inhibitory concentration S. aureus ATCC25923 [3]: 6.25* μM and 4* μg/mL; Minimum inhibitory concentration P. aeruginosa ATCC27853 [4]: 12.5* μM and 8* μg/mL; Non-persister cell survival rate 96 h [5, 9]: 0.0%; Persister cell survival rate 96 h [6, 9]: 0.0%
5 | COC(=O)[C@@H](Cc1ccccc1)NC(=O)CC[C@@H](C)[C@H]1CCC2C3C(CC[C@@]21C)[C@@]1(C)CC[C@H](NCCNCCNCCN)C[C@H]1C[C@H]3O (stereo partly drawn) [Compound S010, methyl ((4R)-4-((3S,5S,7R,10S,13R,17R)-3-((2-((2-((2-aminoethyl)amino)ethyl)amino)ethyl)amino)-7-hydroxy-10,13-dimethylhexadecahydro-1H-cyclopenta[a]phenanthren-17-yl)pentanoyl)-D-phenylalaninate] | 12.5 µM and 8 µg/mL | 50 µM and 32 µg/mL | good toxicity results | 114 µM and 77.4 µg/mL | 114 | 12.5 µM and 8 µg/mL | 50 µM and 32 µg/mL | very potent anti-persister activity | 4.2 | 0.8 | –
6 | COC(=O)[C@@H](NC(=O)CC[C@@H](C)[C@H]1CCC2C3C(CC[C@@]21C)[C@@]1(C)CC[C@H](NCCCNCCNCCCN)C[C@H]1C[C@H]3O)C(C)C (stereo partly drawn) [Compound S013, methyl ((4R)-4-((3S,5S,7R,10S,13R,17R)-3-((3-((2-((3-aminopropyl)amino)ethyl)amino)propyl)amino)-7-hydroxy-10,13-dimethylhexadecahydro-1H-cyclopenta[a]phenanthren-17-yl)pentanoyl)-L-valinate] | 12.5 µM and 8 µg/mL | 6.25 µM and 4 µg/mL | good toxicity results | 96.3 µM and 63.7 µg/mL | 96.3 | 6.25 µM and 4 µg/mL | 25 µM and 16 µg/mL | both anti-persister and anti-bacterial activities | 0 | 0 | –
7 | COC(=O)[C@H](Cc1ccc(O)cc1)NC(=O)CC[C@@H](C)[C@H]1CCC2C3C(CC[C@@]21C)[C@@]1(C)CC[C@H](NCCCNCCNCCCN)C[C@H]1C[C@H]3O (stereo partly drawn) [Compound S042, methyl ((4R)-4-((3S,5S,7R,10S,13R,17R)-3-((3-((2-((3-aminopropyl)amino)ethyl)amino)propyl)amino)-7-hydroxy-10,13-dimethylhexadecahydro-1H-cyclopenta[a]phenanthren-17-yl)pentanoyl)-L-tyrosinate] | 25 µM and 16 µg/mL | 12.5 µM and 8 µg/mL | good toxicity results | 51.4 µM and 37.3 µg/mL | 51.4 | 6.25 µM and 4 µg/mL | 25 µM and 16 µg/mL | not as good on persister cells | – | – | activity on non-persister cells (in words) ([5]; E. coli non-persister cells, Table 8 conditions): good activity on non-persister cells; viability at 125 µM [5]: 0%; viability at 125 µM [6]: 0.1%
8 | COC(=O)[C@H](Cc1ccccc1)NC(=O)CC[C@@H](C)[C@H]1CCC2C3C(CC[C@@]21C)[C@@]1(C)CC[C@H](NCCCNCCCCNCCCN)C[C@H]1C[C@H]3O (stereo partly drawn) [Compound S014, methyl ((4R)-4-((3S,5S,7R,10S,13R,17R)-3-((3-((4-((3-aminopropyl)amino)butyl)amino)propyl)amino)-7-hydroxy-10,13-dimethylhexadecahydro-1H-cyclopenta[a]phenanthren-17-yl)pentanoyl)-L-phenylalaninate] | 12.5 µM and 8 µg/mL | 6.25 µM and 4 µg/mL | good toxicity results | 77.6 µM and 57.3 µg/mL | 77.6 | 3.12 µM and 2 µg/mL | 25 µM and 16 µg/mL | both anti-persister and anti-bacterial activities | – | – | viability at 125 µM [5]: 0%; viability at 125 µM [6]: 0%
